Laboratory results from paper PMC11998009, “Identification of a New FtsZ Inhibitor by Virtual Screening, Mechanistic Insights, and Structure–Activity Relationship Analyses” (ACS Infectious Diseases, 2025).
In brackets after ≈: the same amount, converted by molar mass. Like-named read-outs stand apart in the source and are kept apart here.

Columns and labels:
[1] = MTT cell viability assay on CFBE41o-; details: human, CFBE41o- cells
CFBE41o- cells = assay: MTT cell viability assay on CFBE41o-; details: CFBE41o-, 12.5 μM (4.8 μg/mL), 6 h
[2] = system: S. aureus ATCC25923 biofilms; assay: Biofilm inhibition assay (CFU counting, CLSM); assay type: cell-based
[3] = system: P. aeruginosa PAO1, K. pneumoniae ATCC13883, and A. baumannii ATCC19606; assay: MIC of C11 with PAβN, Gram-negative panel as a whole; assay type: cell-based; details: efflux pump inhibitor PAβN present
mammalian tubulin = assay: Tubulin polymerization assay, fluorescence based; assay type: biochemical; details: for Vmax of tubulin polymerization: DMSO control 3.78
FtsZSa = target: T1, FtsZSa (Staphylococcus aureus, UniProt P0A031); assay: FtsZSa polymerization, sedimentation assay; details: sedimentation assay, 100 μM
T1 sequence (P0A031 1-390): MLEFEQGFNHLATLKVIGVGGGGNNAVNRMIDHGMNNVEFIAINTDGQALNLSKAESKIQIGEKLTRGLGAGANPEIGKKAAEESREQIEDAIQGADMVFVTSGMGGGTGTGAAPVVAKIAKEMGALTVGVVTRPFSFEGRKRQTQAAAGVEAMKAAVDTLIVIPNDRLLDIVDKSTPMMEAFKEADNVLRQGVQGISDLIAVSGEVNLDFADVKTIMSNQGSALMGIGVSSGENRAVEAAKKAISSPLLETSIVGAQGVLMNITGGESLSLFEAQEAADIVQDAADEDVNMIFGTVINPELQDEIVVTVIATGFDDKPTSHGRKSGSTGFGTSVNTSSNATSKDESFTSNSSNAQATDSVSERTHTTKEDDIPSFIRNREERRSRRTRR

FtsZPa [4] = target: T2, FtsZPa (Pseudomonas aeruginosa, UniProt P47204); assay: FtsZPa GTPase activity; assay type: biochemical; design: made in house; host or cells: Escherichia coli BL21DE3
T2 sequence (P47204 1-394): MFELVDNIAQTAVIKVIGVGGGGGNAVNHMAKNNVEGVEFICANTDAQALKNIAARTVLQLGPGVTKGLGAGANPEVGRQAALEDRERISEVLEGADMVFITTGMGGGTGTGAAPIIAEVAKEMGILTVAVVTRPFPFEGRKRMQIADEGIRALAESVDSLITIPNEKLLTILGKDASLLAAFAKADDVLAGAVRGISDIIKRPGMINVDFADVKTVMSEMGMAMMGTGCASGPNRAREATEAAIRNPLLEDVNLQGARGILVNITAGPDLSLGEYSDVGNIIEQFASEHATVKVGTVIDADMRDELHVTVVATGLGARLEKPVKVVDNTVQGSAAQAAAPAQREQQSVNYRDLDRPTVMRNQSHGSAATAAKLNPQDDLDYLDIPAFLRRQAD

FtsZPa [5] = target: T2, FtsZPa; assay: FtsZPa polymerization assay
S. aureus TD276 = assay: MIC against the FtsZ-mCherry strain; assay type: cell-based; details: Staphylococcus aureus
P. aeruginosa PAO1 = assay: MIC / checkerboard with PaβN; assay type: cell-based
[6] = system: S. aureus TD276 expressing FtsZ-mCherry; assay: FtsZ localization by fluorescence time-lapse microscopy; assay type: cell-based; details: 4 μg/mL C11, time-lapse; untreated 4%
[7] = MTT cell viability assay on A549; details: human, A549 cells
[8] = system: A549 pulmonary epithelial cells; assay: MTT cell viability assay on A549; details: A549, 25 μM, 24 h

Compound: COc1ccc(Cc2nnc(SC3=CS(=O)(=O)c4ccccc43)o2)cc1 [C11]
- viability at 6 h, 25 µM [1]: 65%
- viability at 24 h, 25 µM [1]: 25%
- Percentage of live cells (MTT) (CFBE41o- cells): higher than 90%
- Biofilm formation by CLSM and COMSTAT2 ([2]; 2 μg/mL): only slightly affected biofilm formation
- Biofilm formation by CFU counting ([2]; 2- or 4-fold the MIC (4–8 μg/mL)): almost completely inhibit biofilm formation
- Biofilm formation by CLSM and COMSTAT2 ([2]; 4 and 8 μg/mL): almost completely abolished it
- MIC values in the presence of PAβN [3]: 1 to 16 µg/mL
- Vmax of tubulin polymerization (mammalian tubulin; 5 μM): 3.5 mOD/min
- Vmax of tubulin polymerization (mammalian tubulin; 10 μM): 3 mOD/min
- Decrease of tubulin polymerization (mammalian tubulin; 25 μM (9.6 μg/mL), highest tested concentration): 20%
- Vmax of tubulin polymerization (mammalian tubulin; 25 μM): 2.8 mOD/min
- Effect on FtsZSa polymers formation (FtsZSa): inhibitory effect on FtsZSa polymerization
- Effect on FtsZPa GTPase activity (FtsZPa [4]): did not interfere with the GTPase activity
- IC50 (FtsZPa [5]): 34 µM
- MIC (S. aureus TD276): 2 µg/mL (≈ 5.18 µM)
- MIC (P. aeruginosa PAO1; P. aeruginosa PAO1, C11 alone): ≥ 128 µg/mL
- MIC (P. aeruginosa PAO1; Pseudomonas aeruginosa, PAO1, P. aeruginosa PAO1, + PaβN 64 µg/ml, read-out: MIC): 16 µg/mL
- MIC (P. aeruginosa PAO1; Pseudomonas aeruginosa, PAO1, P. aeruginosa PAO1, + PaβN […], read-out: MIC): 1 µg/mL
- MIC (P. aeruginosa PAO1; Pseudomonas aeruginosa, PAO1, P. aeruginosa PAO1, C11 alone, read-out: MIC): ≥ 128 µg/mL
- Percentage of cells in which FtsZ was delocalized [6]: 60%
- viability at 6 h, 25 µM [7]: > 90%
- Percentage of live cells (MTT) [8]: higher than 70%
